Reference: a melting point compilation (Tetko et al.; mined from patent text by program, amines drawn as free bases though some values may be those of a salt)

SMILES	melting point [°C]
CCOC(=O)c1c(N2CCNCC2)c2cccnc2n(Cc2ccccc2)c1=O	120
O=C(Nc1ccc(OCCN2CCOCC2)c2ccccc12)c1cc(F)cc(OC2CCCCC2)c1	116 to 118
OCCN(CCc1ccccc1)C(=S)NCCCc1ccncc1	106 to 107
CN(C)CCNC(=O)Cc1ccc(NC(=O)Cc2ccc([N+](=O)[O-])cc2)cc1	160 to 162
CCCCCC(=O)C=CI	35 to 37
COc1ccc(CN2C(=O)C3(COc4cc5c(cc43)OCO5)c3ccccc32)cc1 (centres undefined)	147 to 148
CCOC(=O)C1=C(C)Nc2nc(N3CCOCC3)nc(N3CCOCC3)c2C1c1cccc2ccccc12 (centres undefined)	198
Nc1c([N+](=O)[O-])cc([N+](=O)[O-])c2c1CCCC2	175 to 176
C=C(c1cccc(-c2cnnn2COCC)c1F)C(O)(Cn1cncn1)c1ccc(F)cc1F (centres undefined)	136 to 138
CCOCC(=NNc1ccc(C(F)(F)F)cc1)C(=O)O	96 to 99
CCOC(=O)C1=C(COCC(C)(O)Cn2cnnc2)NC(C)=C(C(=O)OC)C1c1cccc(Cl)c1Cl (centres undefined)	172 to 176
CCCNC(=O)c1nc(C)ccc1C(=O)Nc1cccc2ccccc12	175 to 178
O=C(O)c1ccc(CCOCCCCCCBr)cc1	85 to 87.5
CCOc1cc(C(CC#N)N2C(=O)c3cccc(N)c3C2=O)ccc1OC (centres undefined)	171 to 172
Cc1c(S(=O)(=O)N(O)C(=N)Nc2ccc(Cl)c(Cl)c2)sc2ccc(Cl)cc12	232 to 233
O=C(C#Cc1ccc(CCN2CCCC2)cc1)Nc1ccc(-c2ccccc2)cc1	180 to 189
CC(C(=O)NCC1CCC1)(c1ccccc1)c1ccccc1	79
CC(C)CCC1=Cc2c(F)cc(F)cc2N(C)C1C (centres undefined)	154 to 155
Oc1ccc2cc(-c3cnc(Cc4ccccc4)o3)ccc2c1	200 to 202
COc1cc(OC)c2c(=O)[nH]c(-c3cc(C)c(OCCN4CCN(C(C)=O)CC4)c(C)c3)nc2c1	213 to 214
CCN(CC)CCc1cccc(Nc2ncc3c(n2)N(c2cccc(C(N)=O)c2)C(=O)N(c2ccc(OC)cc2)C3C)c1 (centres undefined)	170 to 175
Nc1cc(C(=O)O)ccc1-c1nnc(-c2ccc(C(F)(F)F)cc2)o1	> 300
CCCCOc1c(CNC(=O)OC(C)(C)C)n(CC(C)C)c(=O)c2ccc(-c3nc(C)c(C(=O)OCC)s3)cc12	146 to 147
Cc1ccccc1C1CC(=O)c2c(C)ccnc2C1 (centres undefined)	104 to 106

SMILES	melting point [°C]
CCCCCCCCCCCCCCCc1cc2cc(C(=O)OCC)ccc2[nH]1	89 to 91
O=c1ccc(Cc2cccnc2)c[nH]1	142 to 144
CCCN(Cc1ccc(C(=O)NC2Cc3ccccc3C2)cc1)C1CCc2ncsc2C1 (centres undefined)	65
CCCc1cc(CP(=O)(OC)OC)c2c(CP(=O)(OC)OC)cccc2c1OC	69 to 70
CC1=C(C(=O)OCCOc2ccc(C(=O)c3ccccc3)c(O)c2)CC(C(=O)OCCOc2ccc(C(=O)c3ccccc3)c(O)c2)=C(C)N1	188
CCCCCS(=O)(=O)NCCCc1ccc(OCCOC)cc1Oc1ncc(C(F)(F)F)cc1Cl	87 to 90
CC(C)(C)OC(=O)N1CCN(c2ccc(N3CC(CN=[N+]=[N-])OC3=O)cc2F)CC1 (centres undefined)	101 to 104
Cn1cc(C(=O)NCc2ccc(Cl)cc2)c(=O)c2cccc(C#CCCO)c21	195 to 197
CCc1c(C)c(NC(=O)NC(C)(C)C)c(C)c2c1OCC2c1ccc(C(C)C)cc1 (centres undefined)	207 to 209
COc1ccccc1-c1[nH]c2cccc3c2c1CCNC3=O	254 to 255
O=C(CCN1CCC(C(O)(c2ccc(F)cc2)c2ccc(F)cc2)CC1)Nc1ccccc1	190 to 192
COc1ccc2c(=O)[nH]c(-c3ccc(OCCNC(C)C)c(-c4ccc(S(C)(=O)=O)cc4)n3)nc2c1	204 to 205
CC(C)(C)OC(=O)Cc1ccc(CNC(=O)C2Cc3ccccc3N2S(=O)(=O)c2ccc(-c3cccc(C(F)(F)F)c3)cc2)cn1 (centres undefined)	70
CC1CCC(C(C)C)C(OC(=O)c2ccc(N)cc2O)C1 (centres undefined)	187 to 189
COc1cc(CO)ccc1OCc1nc(-c2cccc([N+](=O)[O-])c2)oc1C	134 to 135
COC(=O)c1sc2c(c1N)c1ccccc1c(=O)n2-c1ccccc1C	236 to 237
O=C(O)CCOc1ccc(CNC(=O)C2Cc3ccccc3N2S(=O)(=O)c2ccc(-c3cccc(C(F)(F)F)c3)cc2)cc1 (centres undefined)	72
CN(C=O)c1cc([N+](=O)[O-])cc([N+](=O)[O-])c1	93 to 94
N#Cc1c(N2CCN(C(=O)c3cccs3)CC2)c2sccc2n(Cc2ccc(F)cc2)c1=O	286
CCS(=O)(=O)c1ccc(C(=O)NCc2ccc3c(c2)C(=O)N(C2(C)CCC(=O)NC2=O)C3=O)nc1 (centres undefined)	145 to 147
N#CNC(=Nc1ccncc1)NCCCCOc1ccccc1	131
O=C(c1ccccc1)n1c(=O)c(C(F)(F)F)cn(C2CC(O)C(COCc3ccc(Cl)cc3)O2)c1=O (centres undefined)	159 to 160
COC(=O)c1ccc(Cn2ncc3ccccc32)cc1	89 to 90
CC[C@H](C1CC1)n1cc(Cl)nc(N2CCc3cc(Cl)cc(Cl)c32)c1=O	157 to 159

SMILES	melting point [°C]
CCOC(c1ccc(C=NO)cc1)(c1ccc2[nH]c(=O)cc(-c3cccc(Cl)c3)c2c1)c1cncn1C (centres undefined)	232
COC(=O)C(C)N(C(=O)CCl)c1c(C)cccc1C (centres undefined)	92 to 94
CC(=O)c1nc2ccc(S(=O)(=O)c3ccccc3)cc2cc1O	179 to 180
CN1C(=O)C(NC(=O)Nc2cccc(Cl)c2)N=C(c2ccccc2)c2ccccc21 (centres undefined)	178 to 180
Nc1cc(Cl)cc(Cl)c1C(=O)NCc1ccccc1F	154 to 158
O=C(O)c1cn2c(-c3ccccc3)ncc2c2ccccc12	187 to 190
Cc1nnc(-c2ccccc2F)n2nc(OCc3ncnn3C)c(-c3ccsc3)c12	124 to 129
CCS(=O)c1ccc(N2CC(CNC(C)=S)OC2=O)cc1F (centres undefined)	138 to 139
N#Cc1ccc2c(c1)S(=O)(=O)c1ccccc1C2=O	282 to 283
NS(=O)(=O)c1ncccc1S	102 to 104
Nc1ccc(-c2cn(C3CCN(Cc4ccccc4)CC3)c3ncnc(N)c23)cc1F	141 to 142
CC(C)(C)c1cc(-c2nc(O)ns2)cc(C(C)(C)C)c1O	230 to 232
COc1ccc2ccc(NC(=O)c3c[nH]c4c3C(=O)CCC4)nc2n1	173 to 181
CC(=O)OCc1ccc2oc(=O)c(C(=O)Oc3cc(Cl)cc(Cl)c3)cc2c1	146 to 150
Cc1cccc(/C=C/C(=O)Nc2cccc(NC(=N)c3ccccc3)c2)c1	179 to 180
Cc1oc(-c2ccc(C(F)(F)F)cc2)nc1COc1cccc(Cn2oc(=O)[nH]c2=O)c1	142 to 143
C=C(CN1c2ccccc2Sc2ccc(Cl)cc21)c1ccc(C(=O)Nc2ccccc2N)cc1	126 to 128
Nc1nc2cccnc2c2c1nc(CCO)n2CC1(O)CCOCC1	226 to 227
O=C1CCCC2=C1C(c1ccc(S(=O)(=O)c3ccccc3)cc1)C1=C(CCCC1=O)N2	260
N[C@@H]1CCN(Cc2ccccc2)C[C@H]1O (relative stereo)	74.1
CC1COc2c(-c3ccccc3)ccc3c(=O)c(C(=O)O)cn1c23 (centres undefined)	295 to 296
CC(=O)OC(C(Oc1ccc(Cl)cc1)n1cncn1)C(C)(C)CCl (centres undefined)	111 to 117
CCCCN1CCC(NS(=O)(=O)c2ccc(Nc3ccnc4cc(Cl)ccc34)cc2)CC1	190 to 191
OCCN1CCN(c2ccccn2)CC1	82.5 to 84

SMILES	melting point [°C]
CC(C)(C)c1cc(-c2nn(CCC(=O)O)c3ncccc23)cc(C(C)(C)C)c1O	183 to 186
OC(=S)c1c(F)cccc1-c1ccccc1	152 to 156
CC1Oc2ccc(CN3CCN(c4nc5c(c(=O)n(C)c(=O)n5C)n4C)CC3)cc2NC1=O (centres undefined)	130 to 138
Cn1ccnc1Sc1ccc2[nH]nc(N)c2c1	174
CCOC(=O)CCNC(=O)N(CCCO)c1ccc(-c2ccc(C#N)cc2)cc1	102 to 104
C#CC1(OC(C)=O)C(COC(=O)c2ccc(Cl)cc2)OC(n2ccc(=O)[nH]c2=O)C1OC(C)=O (centres undefined)	218 to 219
Cc1ccc2oc(=O)c(C(=O)Oc3cc(F)ccc3F)cc2c1	155 to 159
CCOc1cc(CCCN2CCc3cc(OC)c(OC)cc3C2)ccc1NC(=O)c1cccc2c(=O)c3cccc(OC)c3[nH]c12	198
N#CC1=C(C2=CCNCC2)Nc2n[nH]cc2C1c1cccc(C#N)c1Br (centres undefined)	226
CC(=O)OC[C@H]1O[C@@H](Cn2ccc(=S)[nH]c2=O)[C@@H](OC(C)=O)[C@@H]1OC(C)=O	100 to 105
Cc1ccc(C(=O)Nc2ccc3ccc(Cl)nc3n2)s1	220
COC(=O)[C@]1(C)CCc2c(C)c(OCc3ccccc3)c(C)c(C)c2O1	102 to 106
CC(=O)NC(=O)CCc1ccc(OCCc2nc(-c3ccccc3)oc2C)cc1	128 to 129
Cc1ccc(-c2ncn3c2CN(N(C)C)c2ccccc2-3)cc1	204 to 205
c1cc(N2CCOCC2)c2c(c1)-n1cnc(-c3nc(C4CC4)no3)c1N1CCN=C21	217 to 220
COCCN(CCOC)C(=O)c1ccc([N+](=O)[O-])cc1[N+](=O)[O-]	89
CN(C)C=NS(=O)(=O)c1cc(Br)cc(Br)c1	157 to 158
Cc1cccc(-c2nc(N)sc2-c2ccnc(-c3ccc(C(=O)NC4CCOCC4)cc3)c2)n1	230 to 232
CN1CCN(CCCNC(=S)NC2CCCCC2)CC1	109 to 111
Nc1cc(F)c(Cl)c(Br)c1Cl	126 to 130
O=C(OCc1ccccc1)c1ncn2c1[C@@H]1CCCN1C(=O)c1c(Cl)cccc1-2	141 to 142
CCOc1cc(C(=O)c2ccccn2)ccc1OCCOc1c(CC(=O)O)cccc1OC	184 to 186
